Earlier results in publication PMC12333940, “A prometabolite strategy inhibits cardiometabolic disease in an ApoE^–/– murine model of atherosclerosis” (JCI Insight, 2025).

Parameters: method as in printed
Details: oral administration of exogenous butyrate; background statement, ref not given; cited from earlier work

Compound: CCCC(=O)O [butyrate, Butyrate]
- absorption into circulation, plasma concentration: 3 to 4 mM
